pIC50: −log10 of the molar value.
Columns and labels:
[1] = molecular target: Poly [ADP-ribose] polymerase 1 (Homo sapiens, UniProt P09874); assay: Inhibition of PARP1
[2] = tested on: HeLa; assay: Ratio of GI50 for methyl methane sulphonate to drug in human HeLa B cells; type: functional

Sequence of Poly [ADP-ribose] polymerase 1 (P09874 whole entry): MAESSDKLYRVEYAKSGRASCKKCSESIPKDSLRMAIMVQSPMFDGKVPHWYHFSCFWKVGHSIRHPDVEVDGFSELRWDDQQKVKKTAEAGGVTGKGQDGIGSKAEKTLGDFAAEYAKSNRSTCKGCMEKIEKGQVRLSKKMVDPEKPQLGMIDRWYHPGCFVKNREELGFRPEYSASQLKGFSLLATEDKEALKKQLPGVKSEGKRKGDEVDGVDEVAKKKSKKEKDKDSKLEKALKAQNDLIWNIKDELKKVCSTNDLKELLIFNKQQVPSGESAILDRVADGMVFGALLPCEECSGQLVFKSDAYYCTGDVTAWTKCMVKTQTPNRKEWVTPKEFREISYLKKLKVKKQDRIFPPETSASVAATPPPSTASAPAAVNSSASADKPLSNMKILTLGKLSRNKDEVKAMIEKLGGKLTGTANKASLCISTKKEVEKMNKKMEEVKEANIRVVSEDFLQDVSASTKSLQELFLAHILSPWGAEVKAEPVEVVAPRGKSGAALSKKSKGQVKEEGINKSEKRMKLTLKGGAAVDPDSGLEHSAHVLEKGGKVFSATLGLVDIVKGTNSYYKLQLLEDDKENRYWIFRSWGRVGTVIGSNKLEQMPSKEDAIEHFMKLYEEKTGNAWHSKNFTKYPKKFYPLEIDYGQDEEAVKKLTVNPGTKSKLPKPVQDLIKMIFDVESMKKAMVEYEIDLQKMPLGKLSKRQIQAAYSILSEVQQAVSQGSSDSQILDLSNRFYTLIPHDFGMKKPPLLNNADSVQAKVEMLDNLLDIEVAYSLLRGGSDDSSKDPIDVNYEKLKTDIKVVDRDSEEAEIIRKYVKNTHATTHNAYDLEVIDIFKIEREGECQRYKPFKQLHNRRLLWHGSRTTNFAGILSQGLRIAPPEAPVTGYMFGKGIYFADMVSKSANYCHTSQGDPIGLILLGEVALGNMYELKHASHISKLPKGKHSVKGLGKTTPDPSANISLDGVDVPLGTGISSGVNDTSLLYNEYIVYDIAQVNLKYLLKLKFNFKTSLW

| pIC50 [1] | SMILES | PF50 [2] |
| --- | --- | --- |
| 8.70 | O=C(c1cccc(Cc2n[nH]c(=O)c3ccccc23)c1)N1CCNCC1 | 2.7 |
| 7.21 | NC(=O)c1ccccc1OCc1ccc(F)c(C(=O)N2CCNCC2)c1 | 1.4 |
| 7.54 | NC(=O)c1cc(F)ccc1OCc1ccc(F)c(C(=O)N2CCNCC2)c1 | 1.6 |
| 6.62 | NC(=O)c1cc(F)c(F)cc1OCc1ccc(F)c(C(=O)N2CCNCC2)c1 | 1.08 |
| – | CC(Oc1ccccc1)C(=O)N1CCN(C(=O)c2cc(CCOc3ccccc3C(N)=O)ccc2F)CC1 (stereo unspecified) | 1.5 |
| < 5.00 | NC(=O)c1c(F)ccc(F)c1OCc1ccc(F)c(C(=O)N2CCNCC2)c1 | – |
| 5.82 | NC(=O)c1cc(F)cc(F)c1OCc1ccc(F)c(C(=O)N2CCNCC2)c1 | 0.9 |
| 7.62 | NC(=O)c1ccccc1OCc1ccc(F)c(C(=O)N2CCN(C(=O)C3CCCC3)CC2)c1 | 1.96 |
| 7.30 | CC(Oc1ccccc1)C(=O)N1CCN(C(=O)c2cc(COc3ccccc3C(N)=O)ccc2F)CC1 (stereo unspecified) | 3.7 |
| 6.73 | NC(=O)c1ccccc1OCc1cccc(C(=O)N2CCN(C(=O)C3CCCC3)CC2)c1 | 1.1 |
| 6.70 | NC(=O)c1ccccc1OCCc1cccc(C(=O)N2CCN(C(=O)C3CCCC3)CC2)c1 | – |
| 8.10 | O=C(c1cccc(Cc2n[nH]c(=O)c3ccccc23)c1)N1CCN(C(=O)C2CCCC2)CC1 | 4.8 |
| 6.60 | NC(=O)c1ccc(F)cc1OCc1ccc(F)c(C(=O)N2CCNCC2)c1 | 1.2 |
| < 5.00 | NC(=O)c1ccccc1OCCc1ccc(F)c(C(=O)N2CCNCC2)c1 | – |
| – | NC(=O)c1cc(F)ccc1OCc1ccc(F)c(C(=O)N2CCN(C(=O)C3CCCC3)CC2)c1 | 1.5 |
| 7.44 | CC(Oc1ccccc1)C(=O)N1CCN(C(=O)c2cccc(COc3ccccc3C(N)=O)c2)CC1 (stereo unspecified) | 2 |
| 6.70 | CC(Oc1ccccc1)C(=O)N1CCN(C(=O)c2cccc(CCOc3ccccc3C(N)=O)c2)CC1 (stereo unspecified) | – |

| SMILES | pIC50 [1] | PF50 [2] |
| --- | --- | --- |
| CC(Oc1ccccc1)C(=O)N1CCN(C(=O)c2cc(COc3ccc(F)cc3C(N)=O)ccc2F)CC1 (stereo unspecified) | 7.85 | 1.12 |
| CC(Oc1ccccc1)C(=O)N1CCN(C(=O)c2cccc(Cc3n[nH]c(=O)c4ccccc34)c2)CC1 (stereo unspecified) | 8.30 | 29.7 |
| NC(=O)c1ccccc1OCc1cccc(C(=O)N2CCNCC2)c1 | 7.74 | 1.3 |
| NC(=O)c1ccccc1OCCc1cccc(C(=O)N2CCNCC2)c1 | 6.01 | 1.06 |

Source: ChEMBL document CHEMBL1155090, “Novel alkoxybenzamide inhibitors of poly(ADP-ribose) polymerase” (Bioorg Med Chem Lett, 2008)
